Source: EP0437846A2, “Solutions of decaplanin salts, their preparation and their use, as well as crystalline decaplanin salts, their preparation and their use” (HOECHST AKTIENGESELLSCHAFT, priority 1990, dated 1991)
Structures can show the parent of a compound that is named as a salt. Where two headings read alike, the source gives them in different places.

Experiments:
[1] = commercial hydrochloride form, result in words; cited from earlier work
[2] = general knowledge on the commercial form, cited from earlier work
[3] = thermal stability of aqueous solution (80 °C, 20 h); assay type: physicochemical
Text: Erfindungsgegenstand ist demzufolge eine wäßrige Lösung eines Decaplaninsalzes, ausgewählt aus der Gruppe der Decaplaninacetate, Decaplaninphosphate und Decaplanintartrate. Aus dieser Gruppe sind die Decaplaninacetate besonders bevorzugt. Die erfindungsgemäßen wässrigen Lösungen haben wie bereits erläutert den Vorteil, daß in ihnen das jeweilige Salz in relativ hoher Konzentration vorliegen kann, ohne daß das betreffende Salz ausfällt. […] So zeigt sich z.B. in einer 0,2 %igen wäßrigen Decaplaninmonoacetatlösung bei einer 20 stündigen Temperaturbelastung von 80 °C nur ein Wirkstoffverlust von weniger als 5 %; Vancomycinhydrochlorid hingegen weist bei einer analogen Behandlung nur noch einen Gehalt von etwa 25 % Vancomycinhydrochlorid auf. Die Instabilität des Vancomycins resultiert aus seiner Umwandlung zum sogenannten CDP (vgl. F. Sztaricskai und R. Bognar, Chemistry of the Vancomycin Group of Antibiotics. In:Recent Developments in the Chemistry of Natural Carbon Compounds, Vol. 10, PP 93-201, 1984, Akademiai Kiado, Budapest, 1983). Es ist besonders überraschend, daß die erfindungsgemäßen Decaplaninsalze diese Umwandlung nicht in diesem Ausmaß erleiden. Weiterhin besonders überraschend ist die bereits erwähnte, im Gegensatz zum Vancomycinhydrochlorid stehende gute lokale Verträglichkeit der erfindungsgemäßen wäßrigen Decaplaninsalzlösungen, die ohne besondere Vorsichtsmaßnahmen - wie langsame Injektion - injiziert werden können und auch subcutan verabreichbar sind.

[4] = toxicity and tolerability on injection; details: result in words; for Verträglichkeit: injection
isoelectric point = assay type: physicochemical
solubility in water = details: result in words
[5] = water
[6] = in vivo
[7] = viscosity / gelling of aqueous salt solutions; assay type: physicochemical; details: result in words
Method: 10,2 g des nach Beispiel 3 gewonnenen Gefriertrocknungsproduktes werden in 90 ml Wasser gelöst. Sie ergeben 100 ml einer Flüssigkeit mit einer Viskosität von weniger als 3 Centipoise (cP) bei 20 °C.
10 g des nach Beispiel 3 gewonnenen Produktes werden in 40 ml Wasser aufgenommen und durch Zugabe von […] Eisessig eine Decaplanindiacetatlösung hergestellt. Die Lösung hat einen pH-Wert von 4,2. Ihre Viskosität beträgt weniger als 3 cP bei 20 °C.

**Q.** Which results are given for `CN[C@H](CC(C)C)C(=O)N[C@H]1C(=O)N[C@@H](CC(N)=O)C(=O)N[C@H]2C(=O)N[C@H]3C(=O)N[C@H](C(=O)N[C@H](C(=O)O)c4cc(O)cc(O)c4-c4cc3ccc4O)[C@H](O)c3ccc(c(Cl)c3)Oc3cc2cc(c3O[C@@H]2O[C@H](CO)[C@@H](O)[C@H](O)[C@H]2O[C@H]2C[C@](C)(N)[C@H](O)[C@H](C)O2)Oc2ccc(cc2Cl)[C@H]1O` [Vancomycinhydrochlorid]?
**A.** Löslichkeit [1]: relativ wenig löslichen Form; Nebenwirkungen [2]: lokale Nekrosen, das "red man-Syndrom" sowie Oto- und Nephrotoxizität; Verträglichkeit ([2]; injection): schlecht verträglich; remaining at 20 h ([3]; water, remaining content after analogous treatment (20 h, 80 °C), read-out: Gehalt): ~25%

**Q.** For Decaplanin, which Verträglichkeit [4] is on record?
**A.** gute Verträglichkeit

**Q.** What about the Toxizität [4] of the same molecule?
**A.** sehr geringe Toxizität

**Q.** And the “isoelektrischer Punkt” value (isoelectric point)?
**A.** 8,1 pH

**Q.** And the “Löslichkeit in Wasser” value (solubility in water)?
**A.** relativ wenig wasserlöslich

**Q.** Which “Löslichkeit (Konzentration)” value [5] does the source give for Decaplaninacetat here?
**A.** ca. 20 Gew.-%

**Q.** What about the Toxizität [6] of the same molecule?
**A.** sehr geringe Toxizität

**Q.** And the “Stabilität der Lösung” value [3]?
**A.** stabil

**Q.** And the “Gelieren / Viskosität der wäßrigen Lösung” value [7]?
**A.** dünnflüssig

**Q.** Which Wirkstoffverlust ([3]; water, 20 h) does the source give for Decaplaninmonoacetat here?
**A.** < 5%

**Q.** What does the source list for Decaplaninphosphate?
**A.** Toxizität [4]: sehr geringe Toxizität; Verträglichkeit [6]: gute Verträglichkeit

**Q.** For Decaplanintartrate, which Verträglichkeit [4] is on record?
**A.** gute Verträglichkeit

**Q.** What about the Toxizität [4] of the same molecule?
**A.** sehr geringe Toxizität

**Q.** What about the “Löslichkeit in Wasser” value (solubility in water) of the same molecule?
**A.** gutes Löslichkeitsverhalten

**Q.** Which results are given for Hydrochlorid?
**A.** Löslichkeit in Wasser (solubility in water): nicht ausreichend löslich; Gelieren / Viskosität der wäßrigen Lösung [7]: zähflüssig
